Experimental data as given in ChEMBL document CHEMBL3044597, “Docking-based 3D-QSAR modeling of the inhibitors of IMP metallo--lactamase” (Med Chem Res, 2013).

target: Beta-lactamase (Pseudomonas aeruginosa, UniProt Q79MP6); assay: Inhibition of Pseudomonas aeruginosa IMP1 metallo-beta-lactamase
Sequence (Q79MP6 whole entry): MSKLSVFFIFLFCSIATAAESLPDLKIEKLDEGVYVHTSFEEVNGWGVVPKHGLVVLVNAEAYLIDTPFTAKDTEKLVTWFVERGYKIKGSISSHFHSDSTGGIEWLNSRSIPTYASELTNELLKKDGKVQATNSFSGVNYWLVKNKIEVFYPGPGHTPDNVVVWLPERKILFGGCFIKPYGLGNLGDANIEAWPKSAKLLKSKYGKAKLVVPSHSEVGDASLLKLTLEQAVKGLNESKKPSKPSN

Q: For `C[C@@H](Cc1ccc(-c2ccccc2)cc1)SC(=O)[C@@H](C)NC(=O)Cc1cccnc1`, which IC50 is on record?
A: 32 µM

Q: `C[C@@H](Cc1ccc(-c2ccccc2)cc1)SC(=O)[C@@H](C)NC(=O)CCc1ccccc1` was tested. Which IC50 did it give?
A: 15 µM

Q: Which IC50 does the source give for `COc1ccc(C(=O)N[C@H](C)C(=O)S[C@@H](C)Cc2ccc(-c3ccccc3)cc2)cc1` here?
A: 29 µM

Q: `O=C(S[C@H](Cc1ccccc1)C(=O)O)c1ccccc1` was tested. Which IC50 did it give?
A: 0.064 µM

Q: `O=C(O)[C@H](S)Cc1ccccc1` was tested. Which IC50 did it give?
A: 0.0859 µM

Q: Which IC50 does the source give for `C[C@@H](c1ccccc1)[C@H](C(=O)O)[C@H](Cc1ccccc1)C(=O)O` here?
A: 0.013 µM

Q: With `C[C@@H](Cc1ccc(-c2ccccc2)cc1)SC(=O)[C@@H](C)NC(=O)CSCC(=O)O` as the compound, how does the IC50 read?
A: 13 µM

Q: How did the IC50 turn out when `COc1ccc(CC(=O)N[C@H](C)C(=O)S[C@@H](C)Cc2ccc(-c3ccccc3)cc2)cc1` was run?
A: 12 µM

Q: With `O=C(O)[C@H](Cc1ccccc1)[C@@H](Cc1ccccc1)C(=O)O` [(2R,3R)-2,3-DIBENZYLSUCCINIC ACID] as the compound, how does the IC50 read?
A: 0.21 µM

Q: For `CC(=O)S[C@H](Cc1ccc(-c2ccccc2)cc1)C(=O)O`, which IC50 is on record?
A: 0.0839 µM

Q: `C=CCOC(=O)N[C@H](C)C(=O)S[C@@H](C)Cc1ccc2oc3ccccc3c2c1` was tested. Which IC50 did it give?
A: 2.9 µM

Q: Which IC50 does the source give for `C[C@@H](Cc1ccc(-c2ccccc2)cc1)SC(=O)[C@@H](C)NC(=O)COc1ccccc1` here?
A: 1 µM

Q: With `COc1cccc(C(=O)N[C@H](C)C(=O)S[C@@H](C)Cc2ccc(-c3ccccc3)cc2)c1` as the compound, how does the IC50 read?
A: 38 µM

Q: How did the IC50 turn out when `C[C@@H](Cc1ccc(-c2ccccc2)cc1)SC(=O)[C@@H](C)NC(=O)c1cccc(N(C)C)c1` was run?
A: 15 µM

Q: `O=C(S[C@H](Cc1ccc2oc3ccccc3c2c1)C(=O)O)c1ccccc1` was tested. Which IC50 did it give?
A: 0.0013 µM

Q: For `CC(C)C(=O)N[C@H](C)C(=O)S[C@@H](C)Cc1ccc(-c2ccccc2)cc1`, which IC50 is on record?
A: 9.71 µM

Q: For `COc1cc(OC)c(C(=O)N[C@H](C)C(=O)S[C@@H](C)Cc2ccc(-c3ccccc3)cc2)c(OC)c1`, which IC50 is on record?
A: 46 µM

Q: With `CC(=O)N[C@H](C)C(=O)S[C@@H](C)Cc1ccc2oc3ccccc3c2c1` as the compound, how does the IC50 read?
A: 2 µM

Q: With `C[C@@H](Cc1ccc(-c2ccccc2)cc1)SC(=O)[C@@H](C)NC(=O)CNC(=O)c1ccccc1` as the compound, how does the IC50 read?
A: 50 µM

Q: With `O=C(S[C@@H](Cc1ccccc1)C(=O)O)c1ccccc1` as the compound, how does the IC50 read?
A: 2.5 µM

Q: For `CCC(=O)N[C@H](C)C(=O)S[C@@H](C)Cc1ccc(-c2ccccc2)cc1`, which IC50 is on record?
A: 9.51 µM

Q: Which IC50 does the source give for `C[C@@H](Cc1ccc(-c2ccccc2)cc1)SC(=O)[C@@H](C)NC(=O)Cc1ccccc1Cc1ccccc1` here?
A: 24 µM

Q: `C[C@@H](Cc1ccc(-c2ccccc2)cc1)SC(=O)[C@@H](C)NC(=O)CCCC(=O)O` was tested. Which IC50 did it give?
A: 91 µM

Q: How did the IC50 turn out when `O=C(O)[C@@H](S)Cc1ccc2oc3ccccc3c2c1` was run?
A: 0.25 µM

Q: For `CC(=O)N[C@H](C)C(=O)S[C@@H](C)Cc1ccc(-c2ccccc2)cc1`, which IC50 is on record?
A: 18 µM

Q: Which IC50 does the source give for `C[C@@H](Cc1ccc2oc3ccccc3c2c1)SC(=O)[C@@H](C)NC(=O)c1ccccc1` here?
A: 1.5 µM

Q: For `O=C(O)[C@@H](Cc1ccc2c(c1)OCO2)[C@H](Cc1ccc2c(c1)OCO2)C(=O)O`, which IC50 is on record?
A: 0.00899 µM

Q: `C[C@@H](Cc1ccc(-c2ccccc2)cc1)SC(=O)[C@@H](C)NC(=O)CCC(=O)c1ccccc1` was tested. Which IC50 did it give?
A: 0.25 µM

Q: For `CCCCCC(=O)N[C@H](C)C(=O)S[C@@H](C)Cc1ccc(-c2ccccc2)cc1`, which IC50 is on record?
A: 13 µM

Q: How did the IC50 turn out when `CC(C)CC(=O)N[C@H](C)C(=O)S[C@@H](C)Cc1ccc(-c2ccccc2)cc1` was run?
A: 5.3 µM

Q: `C[C@@H](Cc1ccc(-c2ccccc2)cc1)SC(=O)[C@@H](C)NC(=O)c1ccc2ccccc2c1` was tested. Which IC50 did it give?
A: 18 µM

Q: Which IC50 does the source give for `O=C(O)[C@@H](S)Cc1ccc(-c2ccccc2)cc1` here?
A: 1.2 µM

Q: Which IC50 does the source give for `C=CCOC(=O)N[C@H](C)C(=O)S[C@@H](C)Cc1ccc(-c2ccccc2)cc1` here?
A: 4.4 µM

Q: For `O=C(O)[C@@H](Cc1ccccc1)[C@H](Cc1ccc2c(c1)OCO2)C(=O)O`, which IC50 is on record?
A: 0.0037 µM

Q: For `C[C@@H](Cc1ccc(-c2ccccc2)cc1)SC(=O)[C@@H](C)NC(=O)c1ccccc1`, which IC50 is on record?
A: 3.6 µM

Q: For `C[C@@H](Cc1ccc(-c2ccccc2)cc1)SC(=O)[C@@H](C)NC(=O)Cc1cccc2ccccc12`, which IC50 is on record?
A: 12 µM

Q: `C[C@@H](Cc1ccc(-c2ccccc2)cc1)SC(=O)[C@@H](C)NC(=O)Cc1ccccc1` was tested. Which IC50 did it give?
A: 5.79 µM

Q: With `CCCC(=O)N[C@H](C)C(=O)S[C@@H](C)Cc1ccc(-c2ccccc2)cc1` as the compound, how does the IC50 read?
A: 9.29 µM

Q: For `C[C@@H](Cc1ccccc1)SC(=O)[C@@H](C)NC(=O)c1ccccc1`, which IC50 is on record?
A: 20 µM

Q: Which IC50 does the source give for `C/C=C/C(=O)N[C@H](C)C(=O)S[C@@H](C)Cc1ccc(-c2ccccc2)cc1` here?
A: 33 µM

Q: With `CC(=O)S[C@H](Cc1ccccc1)C(=O)O` as the compound, how does the IC50 read?
A: 12 µM

Q: How did the IC50 turn out when `C[C@@H](Cc1ccc(-c2ccccc2)cc1)SC(=O)[C@@H](C)NC(=O)Cc1ccc(O)cc1` was run?
A: 3.1 µM

Q: How did the IC50 turn out when `O=C(O)[C@@H](Cc1ccccc1)[C@H](Cc1ccccc1)C(=O)O` was run?
A: 0.0027 µM

Q: For `O=C(O)[C@H](S)Cc1ccc2oc3ccccc3c2c1`, which IC50 is on record?
A: 0.023 µM

Q: For `CCCCC(=O)N[C@H](C)C(=O)S[C@@H](C)Cc1ccc(-c2ccccc2)cc1`, which IC50 is on record?
A: 4.8 µM

Q: Which IC50 does the source give for `C[C@@H](Cc1ccc(-c2ccccc2)cc1)SC(=O)[C@@H](C)NC(=O)Cc1ccc(N(C)C)cc1` here?
A: 55 µM

Q: How did the IC50 turn out when `C[C@@H](Cc1ccc(-c2ccccc2)cc1)SC(=O)[C@@H](C)NC(=O)/C=C/c1ccccc1` was run?
A: 11 µM

Q: How did the IC50 turn out when `O=C(O)[C@H](S)Cc1ccc(-c2ccccc2)cc1` was run?
A: 0.057 µM
